What was measured:
[1] = test system: CD1a-restricted T cell lines (J.RT-3/CD8-2 cells); format: cell-based; conditions: FIG. 7, comparison between homologs
[2] = Iron-bound or unbound form detected by mass spectrometry; format: physicochemical; conditions: mass spectrometry: [M+Fe−2H]+ at m/z 923.5 or proton adduct at m/z 838.6
From the text: The newly discovered antigens share some structural homology to mycobactin siderophores but lack two hydroxyl groups present in mycobactins, which confer upon mycobactins their ability to bind iron.

CD1a-restricted T cells = assay: CD1a-restricted T cell activation assay (CD8-2 T cell line); format: cell-based
CD1b transfectants = format: cell-based; conditions: test for mitogen effects
CD1c transfectants = format: cell-based; conditions: test for mitogen effects
[3] = test system: J.RT-3 T lymphoblastoid cells / CD1a; format: cell-based
polyclonal T cells = assay: Activation of polyclonal T cells; format: cell-based; conditions: test for mitogen effects

| Molecule | T cell response (ability to activate T cells) [1] | form detected (iron-bound or unbound) [2] | CD1a-restricted T cell response (recognition by T cells) (CD1a-restricted T cells) | activation with CD1b transfectants (CD1b transfectants) | activation with CD1c transfectants (CD1c transfectants) | calcium flux (activation) ([3]; […], Fura Red and Fluo-4, flow cytometry) | activation (calcium flux) in control settings ([3]; antigen, TCR or CD1a omitted, or cells not subjected to centrifugation (spin)) | activation of polyclonal T cells (polyclonal T cells) |
| --- | --- | --- | --- | --- | --- | --- | --- | --- |
| CCCCCCCCCCCCCCCCCCCC(=O)NCCCCC(NC(=O)C1(C)COC(c2ccccc2O)=N1)C(=O)OC(C)CC(=O)NC1CCCCNC1=O (stereo not drawn) [DDM840] | weaker ability to activate T cells |  |  |  |  |  |  |  |
| CCCCCCCCCCCCCCCCCC(=O)NCCCCC(NC(=O)C1(C)COC(c2ccccc2O)=N1)C(=O)OC(C)CC(=O)NC1CCCCNC1=O (stereo not drawn) [DDM812] | weaker ability to activate T cells |  |  |  |  |  |  |  |
| mycobactin [reference compound] | not recognized | iron-bound form | did not stimulate |  |  |  |  |  |
| CCCCCCCCCCCCCCC/C=C\C(=O)NCCCCC(NC(=O)C1(C)COC(c2ccccc2O)=N1)C(=O)OC(C)CC(=O)NC1CCCCNC1=O (stereo not drawn) [DDM838, didehydroxymycobactin] | most potent | unbound form |  | not above to activate | not above to activate | Strong calcium flux | No activation | not above to activate |

Source: patent US7253159B2, “Methods and compositions for immunomodulation using CD1 antigens” (The Brigham and Women's Hospital, Inc., priority 2003, dated 2007)
